{"source": "patent US8039639B2", "about": "“Kinase inhibitors and methods of use thereof” (Array BioPharma Inc., priority 2006, dated 2011)", "key": {"K562": {"tested_on": "K562", "assay": "K562 cell viability (CellTiter Blue)", "type": "cell-based", "settings": "Homo sapiens; K562, 72 hours", "description": "Cell viability was subsequently measured using CellTiter Blue (Promega) to determine IC50 values for each compound."}, "FGFR1": {"target": "FGFR1 (Homo sapiens, UniProt P11362)", "sequence (P11362 22-822, species assumed)": "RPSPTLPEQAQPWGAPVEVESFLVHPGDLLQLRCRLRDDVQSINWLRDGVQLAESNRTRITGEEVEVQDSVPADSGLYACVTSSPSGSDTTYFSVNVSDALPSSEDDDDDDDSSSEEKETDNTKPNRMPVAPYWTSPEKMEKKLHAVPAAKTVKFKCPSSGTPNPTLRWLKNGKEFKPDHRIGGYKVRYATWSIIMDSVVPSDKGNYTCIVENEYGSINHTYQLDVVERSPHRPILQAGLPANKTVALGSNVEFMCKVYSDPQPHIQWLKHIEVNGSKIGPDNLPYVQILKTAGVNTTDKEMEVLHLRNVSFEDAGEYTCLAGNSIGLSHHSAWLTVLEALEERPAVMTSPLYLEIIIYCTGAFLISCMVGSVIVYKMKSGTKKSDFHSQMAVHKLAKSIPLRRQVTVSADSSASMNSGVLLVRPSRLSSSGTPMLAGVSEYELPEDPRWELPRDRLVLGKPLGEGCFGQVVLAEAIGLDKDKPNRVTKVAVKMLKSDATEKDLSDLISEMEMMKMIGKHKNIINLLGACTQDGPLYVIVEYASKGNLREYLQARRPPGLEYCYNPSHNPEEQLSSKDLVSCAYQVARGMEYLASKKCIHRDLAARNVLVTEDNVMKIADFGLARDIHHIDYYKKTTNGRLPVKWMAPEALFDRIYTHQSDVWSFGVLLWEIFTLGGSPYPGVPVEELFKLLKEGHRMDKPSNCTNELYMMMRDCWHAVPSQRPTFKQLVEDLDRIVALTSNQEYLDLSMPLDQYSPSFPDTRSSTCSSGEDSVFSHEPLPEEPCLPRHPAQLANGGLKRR", "assay": "protein kinase IC50 determination (ATP at Km)", "type": "biochemical", "settings": "ATP concentration at Km"}, "CYP2D6": {"target": "CYP2D6 (Homo sapiens, UniProt P10635)", "sequence (P10635 whole entry, species assumed)": "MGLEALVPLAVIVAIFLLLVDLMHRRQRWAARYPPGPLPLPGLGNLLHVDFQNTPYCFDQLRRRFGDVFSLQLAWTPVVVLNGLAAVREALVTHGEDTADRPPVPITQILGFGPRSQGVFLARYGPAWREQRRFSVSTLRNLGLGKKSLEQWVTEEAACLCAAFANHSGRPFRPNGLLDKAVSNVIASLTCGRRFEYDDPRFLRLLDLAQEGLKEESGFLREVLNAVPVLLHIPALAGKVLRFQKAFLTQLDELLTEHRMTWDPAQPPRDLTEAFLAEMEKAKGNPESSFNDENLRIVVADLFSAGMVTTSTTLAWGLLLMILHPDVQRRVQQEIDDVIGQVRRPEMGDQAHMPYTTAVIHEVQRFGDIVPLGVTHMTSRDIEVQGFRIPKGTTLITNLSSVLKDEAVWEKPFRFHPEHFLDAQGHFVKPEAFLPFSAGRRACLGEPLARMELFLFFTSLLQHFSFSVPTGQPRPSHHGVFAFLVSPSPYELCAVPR", "assay": "CYP inhibition assay (fluorescent probe, recombinant protein)", "type": "in vitro ADME", "settings": "n=1"}, "[1]": {"assay": "Pharmacokinetics in mouse", "type": "in vivo, female Balb/c mice", "experimental": "(§1) Non-compartmental (model independent) methods were used to analyze the plasma concentration time-curves derived from all species as described below. Clearance (Cl), calculated percent extraction ratios (ER %), volume of distribution (Vz), time to […] (t1/2) and exposure (AUC, area under the curve) values are provided below for mouse, rat, and monkey, respectively.\n1. […] Blood samples were obtained at 15 and 30 minutes, and 1, 2, 4, 8 and 24 hours after PO dosing, and at 15 and 30 minutes, and 1, 2, 4, and 8 hours for IV administration."}, "Tie2 [2]": {"target": "T1, Tie2 (Homo sapiens, UniProt Q02763)", "assay": "protein kinase IC50 determination (ATP at Km)", "type": "biochemical", "settings": "ATP concentration at Km"}, "Hck": {"target": "Hck (Homo sapiens, UniProt P08631)", "sequence (P08631 whole entry, species assumed)": "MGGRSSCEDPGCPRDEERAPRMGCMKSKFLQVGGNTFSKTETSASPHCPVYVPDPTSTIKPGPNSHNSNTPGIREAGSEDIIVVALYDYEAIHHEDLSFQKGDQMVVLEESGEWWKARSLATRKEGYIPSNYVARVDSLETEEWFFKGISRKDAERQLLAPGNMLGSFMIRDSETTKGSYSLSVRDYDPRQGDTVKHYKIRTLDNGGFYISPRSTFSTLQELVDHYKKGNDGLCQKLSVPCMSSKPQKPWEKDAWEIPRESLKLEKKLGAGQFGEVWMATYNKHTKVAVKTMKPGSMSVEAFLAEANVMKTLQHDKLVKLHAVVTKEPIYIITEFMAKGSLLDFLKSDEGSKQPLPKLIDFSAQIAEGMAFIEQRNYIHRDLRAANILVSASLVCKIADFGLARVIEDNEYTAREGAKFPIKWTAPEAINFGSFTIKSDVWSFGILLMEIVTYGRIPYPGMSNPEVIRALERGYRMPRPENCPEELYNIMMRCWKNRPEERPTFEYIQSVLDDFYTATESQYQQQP", "assay": "protein kinase IC50 determination (ATP at Km)", "type": "biochemical", "settings": "ATP concentration at Km"}, "Tie2 [3]": {"target": "T1, Tie2", "assay": "Tie2 autophosphorylation in Ang-1 stimulated HUVECs", "type": "cell-based", "parameters": "endogenous in cells; host or cells: HUVEC", "settings": "200 ng/mL Ang-1 for 10 minutes", "description": "Tie2 was then immunopurified (IP) and immunoblotted with anti-phosphotyrosine (pTyr) and anti-Tie2 antibodies to assess the degree of Tie2 autophosphorylation. Lysates were immunoblotted with anti-phospho-Erk and anti-phospho-AKT (Ser473) antibodies, respectively. Signals were quantified and normalized to GAPDH as a loading control. The results were shown in an immunoblot and a graph."}, "VEGFR": {"target": "VEGFR (Homo sapiens, UniProt P35968)", "sequence (P35968 20-1356)": "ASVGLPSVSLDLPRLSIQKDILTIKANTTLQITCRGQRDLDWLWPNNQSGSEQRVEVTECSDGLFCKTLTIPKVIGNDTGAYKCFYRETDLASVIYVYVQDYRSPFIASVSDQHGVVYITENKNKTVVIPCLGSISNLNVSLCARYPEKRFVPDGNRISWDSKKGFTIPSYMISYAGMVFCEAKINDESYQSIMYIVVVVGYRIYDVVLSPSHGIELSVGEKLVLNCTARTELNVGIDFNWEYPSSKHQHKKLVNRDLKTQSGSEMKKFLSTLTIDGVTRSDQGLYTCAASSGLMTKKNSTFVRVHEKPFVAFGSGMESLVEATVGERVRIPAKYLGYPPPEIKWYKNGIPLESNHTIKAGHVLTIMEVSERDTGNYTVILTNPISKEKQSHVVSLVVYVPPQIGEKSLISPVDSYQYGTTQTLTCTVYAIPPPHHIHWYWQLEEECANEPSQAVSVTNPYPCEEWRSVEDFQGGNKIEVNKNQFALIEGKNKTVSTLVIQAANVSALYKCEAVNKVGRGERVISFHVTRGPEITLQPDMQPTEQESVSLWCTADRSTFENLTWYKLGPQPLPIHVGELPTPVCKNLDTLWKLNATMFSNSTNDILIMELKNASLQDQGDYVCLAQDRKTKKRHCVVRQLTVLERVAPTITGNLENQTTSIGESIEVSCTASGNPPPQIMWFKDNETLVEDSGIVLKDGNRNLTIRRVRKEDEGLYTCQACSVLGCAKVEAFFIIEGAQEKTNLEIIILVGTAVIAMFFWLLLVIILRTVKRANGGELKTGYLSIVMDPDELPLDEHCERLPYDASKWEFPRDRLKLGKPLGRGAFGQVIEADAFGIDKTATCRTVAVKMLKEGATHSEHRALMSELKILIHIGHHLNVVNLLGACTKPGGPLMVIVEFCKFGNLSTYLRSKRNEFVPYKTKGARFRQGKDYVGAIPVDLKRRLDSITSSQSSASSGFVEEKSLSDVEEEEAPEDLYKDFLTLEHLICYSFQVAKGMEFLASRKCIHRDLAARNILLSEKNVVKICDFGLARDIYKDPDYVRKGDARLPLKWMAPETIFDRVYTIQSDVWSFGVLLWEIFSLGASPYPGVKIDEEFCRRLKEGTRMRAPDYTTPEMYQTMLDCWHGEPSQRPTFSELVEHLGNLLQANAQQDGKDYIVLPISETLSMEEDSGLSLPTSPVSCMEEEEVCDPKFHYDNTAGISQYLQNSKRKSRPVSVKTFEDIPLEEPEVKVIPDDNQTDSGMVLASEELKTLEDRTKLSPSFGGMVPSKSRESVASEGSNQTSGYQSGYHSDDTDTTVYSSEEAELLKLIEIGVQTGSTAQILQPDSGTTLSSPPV", "assay": "protein kinase IC50 determination (ATP at Km)", "type": "biochemical", "settings": "ATP concentration at Km"}, "[4]": {"tested_on": "bFGF-induced angiogenesis", "assay": "bFGF matrigel plug angiogenesis in vivo", "parameters": "species or system Female CD-1 mice", "settings": "PO, BID×7, dosed as prodrug Compound 74", "experimental": "Female CD-1 mice (19-22 g), n=4 per treatment group, were implanted subcutaneously with 500 μL growth factor reduced matrigel containing 1500 ng/mL bFGF or 0 ng/mL bFGF as a negative control. Test compounds were administered by oral gavage at the indicated doses and schedules. […] Sutent is an inhibitor of KDRand served as a positive drug control in this study. Animals were euthanized on day 7. Matrigel was harvested, weighed and homogenized in phosphate buffered saline, pH 7.4. Samples were centrifuged and the resulting lysate analyzed for hemoglobin concentration by colorimetric reaction."}, "micronucleus": {"tested_on": "micronucleus", "assay": "Micronucleus assay (in vitro)", "type": "cell-based", "experimental": "hERG assay was performed using a standard patch clamp protocol. AMES assay (bacterial reverse mutation assay) was performed according to protocol. […] In vitro and in vivo micronucleus assays were performed according to protocol."}, "[5]": {"assay": "14-day tolerability study in mice", "type": "in vivo", "settings": "14 days, dosed as Compound 74", "experimental": "Weight loss was assessed throughout study. Blood was removed on the final day for clinical chemistries (albumin, alkaline phosphatase, ALT, Amylase, BUN, calcium, cholesterol, creatinine, glucose, phosphate, total bilirubin, TP, Globulin)."}, "p38 pathway": {"tested_on": "p38 pathway", "assay": "HeLa cell phospho-HSP27 assay, anisomycin-stimulated", "type": "cell-based", "settings": "Homo sapiens; HeLa cells, 60 min pretreatment, 1 μg/mL anisomycin 60 min; read-out: apparent IC50, p38 pathway in cells (phospho-HSP27 Ser78)", "description": "Cells were labeled with antibodies against the phosphorylated form of HSP27 (Ser78) and GAPDH as a normalization control. Cells were imaged and quantified using a LI-COR Aeriustm imager."}, "Abl": {"target": "Abl (Homo sapiens, UniProt P00519)", "sequence (P00519 whole entry, species assumed)": "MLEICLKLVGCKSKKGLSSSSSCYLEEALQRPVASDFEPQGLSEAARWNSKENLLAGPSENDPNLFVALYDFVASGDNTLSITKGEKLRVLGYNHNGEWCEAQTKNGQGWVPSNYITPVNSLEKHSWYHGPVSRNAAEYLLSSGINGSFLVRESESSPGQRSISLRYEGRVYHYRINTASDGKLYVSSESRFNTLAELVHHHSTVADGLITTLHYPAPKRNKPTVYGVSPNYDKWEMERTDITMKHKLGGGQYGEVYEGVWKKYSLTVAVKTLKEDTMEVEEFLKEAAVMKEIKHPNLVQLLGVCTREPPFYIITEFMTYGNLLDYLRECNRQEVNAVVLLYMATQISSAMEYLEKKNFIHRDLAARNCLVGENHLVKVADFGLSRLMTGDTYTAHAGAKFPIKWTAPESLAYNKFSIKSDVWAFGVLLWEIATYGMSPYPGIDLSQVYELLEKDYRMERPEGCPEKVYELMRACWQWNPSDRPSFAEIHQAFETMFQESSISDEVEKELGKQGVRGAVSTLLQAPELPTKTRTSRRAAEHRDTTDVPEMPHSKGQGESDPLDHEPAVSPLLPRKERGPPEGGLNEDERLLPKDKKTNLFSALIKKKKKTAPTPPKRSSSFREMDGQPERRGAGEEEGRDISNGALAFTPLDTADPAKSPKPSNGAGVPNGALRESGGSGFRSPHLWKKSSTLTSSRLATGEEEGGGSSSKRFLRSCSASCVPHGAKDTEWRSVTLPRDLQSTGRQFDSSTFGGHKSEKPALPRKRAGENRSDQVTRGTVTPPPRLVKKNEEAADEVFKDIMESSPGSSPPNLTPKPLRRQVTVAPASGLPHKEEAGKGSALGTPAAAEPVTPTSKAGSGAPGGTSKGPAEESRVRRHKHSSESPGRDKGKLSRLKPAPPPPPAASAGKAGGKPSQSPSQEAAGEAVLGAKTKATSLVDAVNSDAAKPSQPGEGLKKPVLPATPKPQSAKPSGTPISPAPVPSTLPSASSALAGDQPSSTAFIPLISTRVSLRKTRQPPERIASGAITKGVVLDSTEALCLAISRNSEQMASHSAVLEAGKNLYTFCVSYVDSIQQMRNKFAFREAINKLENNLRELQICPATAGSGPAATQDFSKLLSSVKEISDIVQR", "assay": "protein kinase IC50 determination (ATP at Km)", "type": "biochemical", "settings": "ATP concentration at Km"}, "[6]": {"assay": "Pharmacokinetics in monkey", "type": "in vivo, male Cynomologus monkeys", "description": "as §1\n3. […] Blood was sampled at the same time points as listed for the Mouse PK study."}, "[7]": {"tested_on": "Collagen Induced Arthritis (CIA)", "assay": "Rat model of collagen induced arthritis (CIA)", "type": "in vivo, Female Lewis rats", "settings": "BID×7, dosed as prodrug Compound 74; for ED50: PO", "experimental": "Female Lewis rats (200 g); n=8 per treatment group were injected with type II collagen/Freund's incomplete adjuvant (300 μL injection of 0.6 mg collagen, dorsal surface Day 0 and Day 6). […] ENBREL® served as a positive control. Compounds were administered on days 11-18. Ankle diameter was measured at day 11 and every day thereafter (FIG. 70). At study end paw weight and microscopic histology were determined. Both hind paws and knees were removed, hind paws weighed and then placed, with knees, in formalin. Following 1-2 days in fixative and 4-5 days in decalcifier, ankle joints and knees were processed, embedded, sectioned and stained with toluidine blue. Ankles and knees were given scores of 0-5 for inflammation, pannus formation and bone resorption."}, "sodium channel (site 2)": {"tested_on": "sodium channel (site 2)", "assay": "Off-target ligand displacement assay, panel of 28 receptors, ion channels and transporters", "type": "binding", "settings": "at 10 μM; only hit among 28 entities screened"}, "CYP1A2": {"target": "CYP1A2 (Homo sapiens, UniProt P05177)", "sequence (P05177 whole entry, species assumed)": "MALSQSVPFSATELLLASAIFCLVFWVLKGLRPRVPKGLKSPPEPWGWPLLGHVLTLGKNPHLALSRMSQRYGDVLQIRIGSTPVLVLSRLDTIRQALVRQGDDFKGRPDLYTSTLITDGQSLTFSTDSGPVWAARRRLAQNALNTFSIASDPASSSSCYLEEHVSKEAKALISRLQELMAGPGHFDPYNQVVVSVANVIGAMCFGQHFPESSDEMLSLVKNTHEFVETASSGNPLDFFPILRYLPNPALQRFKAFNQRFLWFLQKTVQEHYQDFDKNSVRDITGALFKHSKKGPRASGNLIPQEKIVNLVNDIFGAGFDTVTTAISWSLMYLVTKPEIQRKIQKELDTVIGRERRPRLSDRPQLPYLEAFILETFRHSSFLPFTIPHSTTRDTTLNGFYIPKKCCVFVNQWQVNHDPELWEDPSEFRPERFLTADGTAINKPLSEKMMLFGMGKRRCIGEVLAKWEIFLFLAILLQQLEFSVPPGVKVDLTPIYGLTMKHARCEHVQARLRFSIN", "assay": "CYP inhibition assay (fluorescent probe, recombinant protein)", "type": "in vitro ADME", "settings": "n=1"}, "Pharmacokinetics in rat": {"assay": "Pharmacokinetics in rat", "type": "in vivo, male Sprague-Dawley rats", "description": "as §1\n2. […] Blood was sampled at the same time points as listed for the Mouse PK study."}, "[8]": {"settings": "female, Balb/c, plasma, IV: 1 mg/kg"}, "[9]": {"settings": "CD-1 mice, 10, 30 and 100 mg/kg BID, all dose groups"}, "[10]": {"settings": "male, Sprague-Dawley, plasma, IV: 1 mg/kg"}}, "note": "“Also recorded” adds a separate entry of the source. Read-outs that look alike come from different tables or passages of the source.", "data": [{"smiles": "Cc1ccc(-n2nc(C(C)(C)C)cc2NC(=O)NCc2cc(F)ccc2Oc2ccc3c(cnn3CCO)c2)cc1", "note": "[Compound 72, 1-(3-tert-butyl-1-p-tolyl-1H-pyrazol-5-yl)-3-(5-fluoro-2-(1-(2-hydroxyethyl)-1H-indazol-5-yloxy)benzyl)urea]", "values": [{"measurement": "IC50", "setting": "K562", "result": 62, "unit": "nM"}, {"measurement": "IC50", "setting": "FGFR1", "result": 28, "unit": "nM"}, {"measurement": "IC50", "setting": "CYP2D6", "result": 3000, "unit": "nM"}, {"measurement": "AUC", "setting": "[1]; IV: 1 mg/kg", "result": "AUC = 6.6 μg-hr/kg"}, {"measurement": "ER", "setting": "[1]; IV: 1 mg/kg", "result": "ER = 2.8%"}, {"measurement": "AUC", "setting": "[1]; Oral: 10 mg/kg", "result": "AUC = 10.5 μg-hr/kg"}, {"measurement": "F", "setting": "[1]; Oral: 10 mg/kg", "result": "F = 16%"}, {"measurement": "clearance", "setting": "[1]; [8]", "result": 2.6, "unit": "mL/min/kg"}, {"measurement": "half-life", "setting": "[1]; [8]", "result": 3.9, "unit": "h"}, {"measurement": "Vd", "setting": "[1]; female, Balb/c, plasma, IV: 1 mg/kg, read-out: Vz", "result": 0.085, "unit": "L/kg"}, {"measurement": "Cmax", "setting": "[1]; female, Balb/c, plasma, Oral: 10 mg/kg", "result": 1800, "unit": "ng/mL"}, {"measurement": "IC50", "setting": "Tie2 [2]", "result": 1, "unit": "nM"}, {"measurement": "IC50", "setting": "Hck", "result": 26, "unit": "nM"}, {"measurement": "IC50", "setting": "Tie2 [3]", "result": "< 33", "unit": "nM"}, {"measurement": "IC50", "setting": "VEGFR", "result": 74, "unit": "nM"}, {"measurement": "inhibition of bFGF-induced angiogenesis (matrigel hemoglobin)", "setting": "[4]; mice, 100 mg/kg active drug, p<0.05", "result": 72, "unit": "%"}, {"measurement": "bFGF-induced angiogenesis, dose response", "setting": "[4]; mice, 10, 30 or 100 mg/kg active drug", "result": "inhibited bFGF-induced angiogenesis in a dose-dependent manner"}, {"measurement": "Micronucleus (in vitro)", "setting": "micronucleus", "result": "Negative"}, {"measurement": "Clinical chemistries", "setting": "[5]; [9]", "result": "Within normal range (all dose groups)"}, {"measurement": "Weight loss", "setting": "[5]; [9]", "result": "<5% (all dose groups)"}, {"measurement": "dose-limiting toxicities (DLTs)", "setting": "[5]; CD-1 mice, up to 100 mg/kg BID", "result": "no dose-limiting toxicities (DLTs) were seen; also recorded: no observed DLTs"}, {"measurement": "IC50", "setting": "p38 pathway", "result": 2, "unit": "nM"}, {"measurement": "IC50", "setting": "Abl", "result": 4, "unit": "nM"}, {"measurement": "AUC", "setting": "[6]; IV: 1 mg/kg", "result": "AUC = 4.1 μg-hr/kg"}, {"measurement": "ER", "setting": "[6]; IV: 1 mg/kg", "result": "ER = 20%"}, {"measurement": "AUC", "setting": "[6]; Oral: 10 mg/kg", "result": "AUC = 7.6 μg-hr/kg"}, {"measurement": "F", "setting": "[6]; Oral: 10 mg/kg", "result": "F = 38%"}, {"measurement": "clearance", "setting": "[6]; male, plasma, IV: 1 mg/kg", "result": 8.8, "unit": "mL/min/kg"}, {"measurement": "half-life", "setting": "[6]; male, plasma, IV: 1 mg/kg", "result": 4.6, "unit": "h"}, {"measurement": "Vd", "setting": "[6]; male, plasma, IV: 1 mg/kg, read-out: Vz", "result": 3.2, "unit": "L/kg"}, {"measurement": "Cmax", "setting": "[6]; male, plasma, Oral: 10 mg/kg", "result": 260, "unit": "ng/mL"}, {"measurement": "disease course by the end of the study", "setting": "[7]; rat CIA, 10 mg/kg PO", "result": "induced disease regression"}, {"measurement": "parameters associated with the disease model", "setting": "[7]; rat CIA, 0.3, 1, 3 or 10 mg/kg PO", "result": "dose-dependently improved all of the parameters"}, {"measurement": "ED50", "setting": "[7]; rat CIA, read-out: apparent ED50, ankle diameter", "result": 1.5, "unit": "mg/kg"}, {"measurement": "ED50", "setting": "[7]; rat CIA, read-out: apparent ED50, histopathology", "result": 3, "unit": "mg/kg"}, {"measurement": "ligand displacement, sodium channel (site 2)", "setting": "sodium channel (site 2)", "result": "> 50", "unit": "%"}, {"measurement": "IC50", "setting": "CYP1A2", "result": 25000, "unit": "nM"}, {"measurement": "AUC", "setting": "Pharmacokinetics in rat; IV: 1 mg/kg", "result": "AUC = 4.7 μg-hr/kg"}, {"measurement": "ER", "setting": "Pharmacokinetics in rat; IV: 1 mg/kg", "result": "ER = 4.6%"}, {"measurement": "AUC", "setting": "Pharmacokinetics in rat; Oral: 30 mg/kg", "result": "AUC = 35 μg-hr/kg"}, {"measurement": "F", "setting": "Pharmacokinetics in rat; Oral: 30 mg/kg", "result": "F = 15%"}, {"measurement": "clearance", "setting": "Pharmacokinetics in rat; [10]", "result": 3.2, "unit": "mL/min/kg"}, {"measurement": "half-life", "setting": "Pharmacokinetics in rat; [10]", "result": 3.9, "unit": "h"}, {"measurement": "Vd", "setting": "Pharmacokinetics in rat; male, Sprague-Dawley, plasma, IV: 1 mg/kg, read-out: Vz", "result": 0.048, "unit": "L/kg"}, {"measurement": "Cmax", "setting": "Pharmacokinetics in rat; male, Sprague-Dawley, plasma, Oral: 30 mg/kg", "result": 4500, "unit": "ng/mL"}]}]}
